Assay results: patent publication US6656940B2, “Tricyclic quinoxaline derivatives as protein tyrosine kinase inhibitors” (Sugen, Inc., priority 1997, dated 2003)

Legend:
FLK-1 receptor = target: T1, FLK-1 receptor (Mus musculus, UniProt P35918); assay: FLK-1 ELISA (cellular/catalytic); format: cell-based; conditions: 50% inhibition of PTK activity compared to that in a control; read-out: FLK KINASE IC50
T1 construct: expressed in transfected cells; host or cells: NIH3T3 C7#3 cells
Protocol: (§1) The cellular/catalytic assays described herein are performed in an ELISA format. The general procedure is as follows: a compound is introduced to cells expressing the test kinase, either naturally or recombinantly, for a selected period of time after which, if the test kinase is a receptor, a ligand known to activate the receptor's activity is added. The cells are lysed and the lysate is transferred to the wells of an ELISA plate previously coated with a specific antibody recognizing the substrate of the enzymatic phosphorylation reaction. Non-substrate components of the cell lysate are washed away and the amount of phosphorylation on the substrate is detected with an antibody specifically recognizing phosphotyrosine and is compared with that of control cells that were not contacted with the test compound.
An ELISA assay is conducted to measure the kinase activity of the FLK-1 receptor and more specifically, the inhibition or activation of TK activity on the FLK-1 receptor. Specifically, the following assay can be conducted to measure kinase activity of the FLK-1 receptor in cells genetically engineered to express Flk-1.
k. NIH3T3 C7#3 Cells (FLK-1 expressing cells);
1. Coat Corning 96-well ELISA plates with 1.0 μg per well Cappel Anti-rabbit IgG antibody in 0.1M Na2CO3 pH 9.6. Bring final volume to 150 μl per well. Coat plates overnight at 4° C. […]

human EGF-R = target: T2, human EGF-R (Homo sapiens, UniProt P00533); assay: EGF Receptor ELISA (cellular/catalytic); format: cell-based; conditions: 50% inhibition of PTK activity compared to that in a control; read-out: EGFR KINASE IC50
T2 construct: expressed in transfected cells; host or cells: NIH 3T3/C7 cell line
Protocol: as §1
EGF Receptor kinase activity in cells genetically engineered to express human EGF-R can be measured as described below:
1. NIH 3T3/C7 cell line (Honegger, et al., Cell 51:199-209, 1987) can be use for this assay.
3. Resuspend cells in seeding medium (DMEM, 0.5% bovine serum), and count the cells using trypan blue. […]
12. The maximal phosphotyrosine signal is determined by subtracting the value of the negative controls from the positive controls. The percent inhibition of phosphotyrosine content for extract-containing wells is then calculated, after subtraction of the negative controls.

T2 sequence (P00533 25-1210): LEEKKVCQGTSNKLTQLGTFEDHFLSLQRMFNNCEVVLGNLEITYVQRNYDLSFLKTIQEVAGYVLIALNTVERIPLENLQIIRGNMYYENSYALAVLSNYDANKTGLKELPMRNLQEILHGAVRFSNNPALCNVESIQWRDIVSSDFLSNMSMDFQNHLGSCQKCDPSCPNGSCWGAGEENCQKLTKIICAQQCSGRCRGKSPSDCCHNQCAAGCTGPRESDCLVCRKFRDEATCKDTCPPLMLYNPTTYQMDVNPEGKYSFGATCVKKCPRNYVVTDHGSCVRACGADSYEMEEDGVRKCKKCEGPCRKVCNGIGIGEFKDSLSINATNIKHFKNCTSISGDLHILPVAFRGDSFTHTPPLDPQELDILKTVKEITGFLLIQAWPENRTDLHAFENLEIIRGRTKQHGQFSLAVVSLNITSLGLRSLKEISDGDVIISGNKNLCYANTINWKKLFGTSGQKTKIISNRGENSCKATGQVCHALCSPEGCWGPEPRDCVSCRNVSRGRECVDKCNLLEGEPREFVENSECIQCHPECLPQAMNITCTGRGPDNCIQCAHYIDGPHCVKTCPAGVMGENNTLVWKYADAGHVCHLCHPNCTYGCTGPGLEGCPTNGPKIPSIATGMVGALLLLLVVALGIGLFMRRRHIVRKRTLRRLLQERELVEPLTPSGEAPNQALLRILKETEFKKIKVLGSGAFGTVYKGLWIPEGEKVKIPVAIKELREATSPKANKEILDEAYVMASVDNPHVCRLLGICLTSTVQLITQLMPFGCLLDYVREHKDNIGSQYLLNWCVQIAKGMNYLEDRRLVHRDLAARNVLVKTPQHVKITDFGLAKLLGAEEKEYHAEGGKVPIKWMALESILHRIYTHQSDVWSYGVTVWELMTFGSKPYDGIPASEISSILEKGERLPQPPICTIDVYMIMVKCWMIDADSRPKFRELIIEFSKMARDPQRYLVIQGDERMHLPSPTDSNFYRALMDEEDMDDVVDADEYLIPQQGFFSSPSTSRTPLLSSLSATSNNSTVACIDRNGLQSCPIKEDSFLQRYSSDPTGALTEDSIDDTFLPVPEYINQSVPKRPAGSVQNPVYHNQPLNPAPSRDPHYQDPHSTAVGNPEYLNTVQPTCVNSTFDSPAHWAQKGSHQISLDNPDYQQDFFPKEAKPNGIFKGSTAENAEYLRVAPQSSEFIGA
T1 sequence (P35918 20-1345): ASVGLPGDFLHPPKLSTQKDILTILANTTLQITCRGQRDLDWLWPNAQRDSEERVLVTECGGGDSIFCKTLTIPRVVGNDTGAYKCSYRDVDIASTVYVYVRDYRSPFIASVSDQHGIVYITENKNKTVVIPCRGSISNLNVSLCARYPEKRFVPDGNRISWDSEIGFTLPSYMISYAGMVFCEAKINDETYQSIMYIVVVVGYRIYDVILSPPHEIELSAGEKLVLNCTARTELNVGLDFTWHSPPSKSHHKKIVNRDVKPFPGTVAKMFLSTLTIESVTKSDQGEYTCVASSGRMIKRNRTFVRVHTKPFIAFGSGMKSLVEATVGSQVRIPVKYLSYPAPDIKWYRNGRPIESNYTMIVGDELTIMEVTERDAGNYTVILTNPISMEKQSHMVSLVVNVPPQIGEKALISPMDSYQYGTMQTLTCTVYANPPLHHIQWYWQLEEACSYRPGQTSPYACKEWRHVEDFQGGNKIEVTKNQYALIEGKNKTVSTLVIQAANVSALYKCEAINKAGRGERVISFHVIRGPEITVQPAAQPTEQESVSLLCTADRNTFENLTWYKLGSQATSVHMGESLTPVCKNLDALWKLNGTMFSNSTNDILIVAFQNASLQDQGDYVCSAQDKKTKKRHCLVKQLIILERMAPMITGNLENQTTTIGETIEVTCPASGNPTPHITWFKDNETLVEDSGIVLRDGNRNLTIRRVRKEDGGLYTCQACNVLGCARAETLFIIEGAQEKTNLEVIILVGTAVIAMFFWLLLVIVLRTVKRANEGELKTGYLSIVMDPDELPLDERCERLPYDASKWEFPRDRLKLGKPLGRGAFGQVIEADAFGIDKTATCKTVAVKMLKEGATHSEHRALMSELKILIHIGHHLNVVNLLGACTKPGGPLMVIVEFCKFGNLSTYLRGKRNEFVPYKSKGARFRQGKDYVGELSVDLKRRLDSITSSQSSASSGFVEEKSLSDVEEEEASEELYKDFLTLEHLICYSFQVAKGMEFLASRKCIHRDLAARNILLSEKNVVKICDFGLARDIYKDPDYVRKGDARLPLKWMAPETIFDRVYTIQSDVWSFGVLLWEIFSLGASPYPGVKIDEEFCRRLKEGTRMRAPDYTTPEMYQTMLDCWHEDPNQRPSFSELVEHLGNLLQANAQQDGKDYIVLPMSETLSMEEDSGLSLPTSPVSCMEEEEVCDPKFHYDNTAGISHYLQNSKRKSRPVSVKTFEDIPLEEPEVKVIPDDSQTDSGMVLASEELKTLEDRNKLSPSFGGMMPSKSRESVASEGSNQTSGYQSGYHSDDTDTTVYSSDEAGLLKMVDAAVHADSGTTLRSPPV

SMILES: Cc1nc2c(nc1C)CC1=NC(c3ccccc3)=NC1=C2 [6,7-dimethyl-2-phenylimidazo[4,5-g]quinoxaline]
- IC50 (FLK-1 receptor): 88.4 µM
- IC50 (human EGF-R): > 100 µM
